system: Splenocyte; experiment: Cytotoxicity against BALB/c mouse splenocytes at 50 uM incubated for 48 hrs by MTT assay; format: cell-based

How did the Activity turn out when C[C@H]1C/C=C/[C@@H](O)[C@@H](O)CC/C=C/c2cc(O)cc(O)c2C(=O)O1 [AIGIALOMYCIN D] was run?
The Activity was “Non-Toxic”.

Which Activity does the source give for COc1cc(O)c2c(c1)[C@H]1O[C@@H]1C[C@H](O)[C@H](O)C(=O)CCC[C@H](C)OC2=O here?
The Activity was “Non-Toxic”.

COc1cc(O)c2c(c1)/C=C/C[C@H](O)[C@H](O)C(=O)CCC[C@H](C)OC2=O was tested. Which Activity did it give?
Its Activity is “Non-Toxic”.

How did the Activity turn out when COc1cc(O)c2c(c1)/C=C/C[C@@H](O)[C@@H](O)C(=O)/C=C/C[C@H](C)OC2=O was run?
Its Activity is “Non-Toxic”.

For COc1cc(O)c2c(c1)/C=C/C[C@@H](O)[C@H](O)C(=O)/C=C/C[C@H](C)OC2=O, which Activity is on record?
The Activity was “Non-Toxic”.

COc1cc(O)c2c(c1)/C=C/C[C@H](O)[C@H](O)C(=O)/C=C/C[C@H](C)OC2=O was tested. Which Activity did it give?
Its Activity is “Non-Toxic”.

With C[C@H](O)C[C@@H]1CCCCCc2cc(O)cc(O)c2C(=O)O1 as the compound, how does the Activity read?
Its Activity is “Non-Toxic”.

With COc1cc(O)c2c(c1)/C=C/CC[C@H](O)C(=O)CCC[C@H](C)OC2=O as the compound, how does the Activity read?
The Activity was “Non-Toxic”.

How did the Activity turn out when COc1cc(O)c2c(c1)/C=C/C[C@H](O)[C@@H](O)C(=O)/C=C/C[C@H](C)OC2=O was run?
Its Activity is “Non-Toxic”.

For C[C@H](O)CCC[C@@H]1CCCC(=O)Cc2cc(O)cc(O)c2C(=O)O1, which Activity is on record?
The Activity was “Non-Toxic”.

system: T-cell; experiment: Induction of apoptosis in ConA-induced mouse splenic T cells assessed as early apoptotic cells at 1 uM after 48 hrs by Annexin V-FITC/propidium iodide staining based flow cytometry analysis (reference value: 7.1 %); format: functional

COc1cc(O)c2c(c1)/C=C/C[C@H](O)[C@H](O)C(=O)CCC[C@H](C)OC2=O was tested. Which Activity did it give?
Its Activity is 9.1%.

system: T-cell; experiment: Induction of apoptosis in ConA-induced mouse splenic T cells assessed as early apoptotic cells at 15 uM after 48 hrs by Annexin V-FITC/propidium iodide staining based flow cytometry analysis (reference value: 7.1 %); format: functional

How did the Activity turn out when COc1cc(O)c2c(c1)/C=C/C[C@H](O)[C@H](O)C(=O)CCC[C@H](C)OC2=O was run?
Its Activity is 4.6%.

system: Splenocyte; experiment: Immunosuppressive activity in BALB/c mouse splenocytes assessed as inhibition of concanavalin A-stimulated T-cell proliferation incubated for 48 hrs by MTT assay; format: functional, cell-based

Which IC50 does the source give for C[C@H]1C/C=C/[C@@H](O)[C@@H](O)CC/C=C/c2cc(O)cc(O)c2C(=O)O1 [AIGIALOMYCIN D] here?
The IC50 was 16.3 µM.

For COc1cc(O)c2c(c1)[C@H]1O[C@@H]1C[C@H](O)[C@H](O)C(=O)CCC[C@H](C)OC2=O, which IC50 is on record?
Its IC50 is 8.1 µM.

COc1cc(O)c2c(c1)/C=C/C[C@H](O)[C@H](O)C(=O)CCC[C@H](C)OC2=O was tested. Which IC50 did it give?
Its IC50 is 7.4 µM.

How did the IC50 turn out when COc1cc(O)c2c(c1)/C=C/C[C@@H](O)[C@@H](O)C(=O)/C=C/C[C@H](C)OC2=O was run?
The IC50 was 15.2 µM.

COc1cc(O)c2c(c1)/C=C/C[C@@H](O)[C@H](O)C(=O)/C=C/C[C@H](C)OC2=O was tested. Which IC50 did it give?
The IC50 was 11.4 µM.

Which IC50 does the source give for COc1cc(O)c2c(c1)/C=C/C[C@H](O)[C@H](O)C(=O)/C=C/C[C@H](C)OC2=O here?
Its IC50 is 6 µM.

For C[C@H](O)C[C@@H]1CCCCCc2cc(O)cc(O)c2C(=O)O1, which IC50 is on record?
The IC50 was greater than 50 µM.

For COc1cc(O)c2c(c1)/C=C/CC[C@H](O)C(=O)CCC[C@H](C)OC2=O, which IC50 is on record?
The IC50 was greater than 50 µM.

How did the IC50 turn out when COc1cc(O)c2c(c1)/C=C/C[C@H](O)[C@@H](O)C(=O)/C=C/C[C@H](C)OC2=O was run?
Its IC50 is 24.1 µM.

With C[C@H](O)CCC[C@@H]1CCCC(=O)Cc2cc(O)cc(O)c2C(=O)O1 as the compound, how does the IC50 read?
Its IC50 is greater than 50 µM.

system: T-cell; experiment: Induction of apoptosis in ConA-induced mouse splenic T cells assessed as late apoptotic cells at 1 uM after 48 hrs by Annexin V-FITC/propidium iodide staining based flow cytometry analysis (reference value: 0.6 %); format: functional

Which Activity does the source give for COc1cc(O)c2c(c1)/C=C/C[C@H](O)[C@H](O)C(=O)CCC[C@H](C)OC2=O here?
Its Activity is 26.5%.

system: T-cell; experiment: Induction of apoptosis in ConA-induced mouse splenic T cells assessed as early apoptotic cells at 5 uM after 48 hrs by Annexin V-FITC/propidium iodide staining based flow cytometry analysis (reference value: 7.1 %); format: functional

For COc1cc(O)c2c(c1)/C=C/C[C@H](O)[C@H](O)C(=O)CCC[C@H](C)OC2=O, which Activity is on record?
Its Activity is 5.8%.

system: T-cell; experiment: Induction of apoptosis in ConA-induced mouse splenic T cells assessed as late apoptotic cells at 15 uM after 48 hrs by Annexin V-FITC/propidium iodide staining based flow cytometry analysis (reference value: 0.6 %); format: functional

Which Activity does the source give for COc1cc(O)c2c(c1)/C=C/C[C@H](O)[C@H](O)C(=O)CCC[C@H](C)OC2=O here?
The Activity was 59.1%.

system: T-cell; experiment: Induction of apoptosis in ConA-induced mouse splenic T cells assessed as late apoptotic cells at 5 uM after 48 hrs by Annexin V-FITC/propidium iodide staining based flow cytometry analysis (reference value: 0.6 %); format: functional

Which Activity does the source give for COc1cc(O)c2c(c1)/C=C/C[C@H](O)[C@H](O)C(=O)CCC[C@H](C)OC2=O here?
Its Activity is 32.9%.

system: Splenocyte; experiment: Immunosuppressive activity in BALB/c mouse splenocytes assessed as inhibition of LPS-stimulated B-cell proliferation incubated for 48 hrs by MTT assay; format: functional, cell-based

For C[C@H]1C/C=C/[C@@H](O)[C@@H](O)CC/C=C/c2cc(O)cc(O)c2C(=O)O1 [AIGIALOMYCIN D], which IC50 is on record?
Its IC50 is 18.4 µM.

Which IC50 does the source give for COc1cc(O)c2c(c1)[C@H]1O[C@@H]1C[C@H](O)[C@H](O)C(=O)CCC[C@H](C)OC2=O here?
Its IC50 is 8.5 µM.

How did the IC50 turn out when COc1cc(O)c2c(c1)/C=C/C[C@H](O)[C@H](O)C(=O)CCC[C@H](C)OC2=O was run?
The IC50 was 6.4 µM.

With COc1cc(O)c2c(c1)/C=C/C[C@@H](O)[C@@H](O)C(=O)/C=C/C[C@H](C)OC2=O as the compound, how does the IC50 read?
The IC50 was 11.8 µM.

COc1cc(O)c2c(c1)/C=C/C[C@@H](O)[C@H](O)C(=O)/C=C/C[C@H](C)OC2=O was tested. Which IC50 did it give?
Its IC50 is 6.8 µM.

How did the IC50 turn out when COc1cc(O)c2c(c1)/C=C/C[C@H](O)[C@H](O)C(=O)/C=C/C[C@H](C)OC2=O was run?
Its IC50 is 6.2 µM.

C[C@H](O)C[C@@H]1CCCCCc2cc(O)cc(O)c2C(=O)O1 was tested. Which IC50 did it give?
The IC50 was greater than 50 µM.

With COc1cc(O)c2c(c1)/C=C/CC[C@H](O)C(=O)CCC[C@H](C)OC2=O as the compound, how does the IC50 read?
The IC50 was greater than 50 µM.

How did the IC50 turn out when COc1cc(O)c2c(c1)/C=C/C[C@H](O)[C@@H](O)C(=O)/C=C/C[C@H](C)OC2=O was run?
Its IC50 is 29.1 µM.

With C[C@H](O)CCC[C@@H]1CCCC(=O)Cc2cc(O)cc(O)c2C(=O)O1 as the compound, how does the IC50 read?
Its IC50 is greater than 50 µM.
